{
  "source": "patent US12187723B2",
  "about": "(BRISTOL-MYERS SQUIBB COMPANY, priority 2019, dated 2025)",
  "data": [
    {"target": "T1, human TLR8 (Homo sapiens, UniProt Q9NR97)", "T1 construct": "host or cells: HEK-Blue cells", "T1 sequence (Q9NR97 27-1041)": "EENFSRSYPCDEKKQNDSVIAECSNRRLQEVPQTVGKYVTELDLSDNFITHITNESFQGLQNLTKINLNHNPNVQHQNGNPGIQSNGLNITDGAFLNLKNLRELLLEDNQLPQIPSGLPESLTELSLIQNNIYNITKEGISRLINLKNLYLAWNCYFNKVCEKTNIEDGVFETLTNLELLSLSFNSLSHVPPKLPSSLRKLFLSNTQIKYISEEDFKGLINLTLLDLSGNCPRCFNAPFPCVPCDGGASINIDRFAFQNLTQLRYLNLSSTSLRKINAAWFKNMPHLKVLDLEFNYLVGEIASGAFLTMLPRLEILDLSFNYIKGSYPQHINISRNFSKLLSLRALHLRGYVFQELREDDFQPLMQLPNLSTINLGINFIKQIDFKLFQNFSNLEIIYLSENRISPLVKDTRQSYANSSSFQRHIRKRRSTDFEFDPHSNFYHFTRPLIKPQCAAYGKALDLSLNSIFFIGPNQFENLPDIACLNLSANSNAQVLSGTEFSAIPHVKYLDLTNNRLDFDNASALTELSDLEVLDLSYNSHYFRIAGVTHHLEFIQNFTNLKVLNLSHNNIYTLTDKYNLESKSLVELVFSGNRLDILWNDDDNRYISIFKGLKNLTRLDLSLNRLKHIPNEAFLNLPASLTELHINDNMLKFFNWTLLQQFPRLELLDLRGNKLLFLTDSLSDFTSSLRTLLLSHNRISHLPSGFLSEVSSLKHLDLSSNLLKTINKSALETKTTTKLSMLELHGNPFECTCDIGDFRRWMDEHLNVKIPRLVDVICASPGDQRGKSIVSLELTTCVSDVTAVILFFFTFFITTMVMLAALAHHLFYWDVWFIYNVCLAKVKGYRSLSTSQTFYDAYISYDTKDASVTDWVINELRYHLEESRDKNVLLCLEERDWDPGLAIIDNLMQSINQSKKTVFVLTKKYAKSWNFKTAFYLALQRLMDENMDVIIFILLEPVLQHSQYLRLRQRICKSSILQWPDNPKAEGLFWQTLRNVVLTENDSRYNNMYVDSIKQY", "assay": "TLR8 inhibition reporter assay (HEK-Blue SEAP)", "type": "cell-based", "conditions": "HEK-Blue cells overexpressing human TLR8, R848 15.9 μM, 22 hour incubation", "procedure,_shortened": "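Screening used HEK-Blue cells overexpressing one human TLR (7, 8 or 9) and an IFN-β minimal promoter–NF-κB/AP-1 SEAP construct. Stimulation lasted 22 h at 37 °C with receptor-specific agonist: gardiquimod, R848 or ODN2006 at 7.5 μM, 15.9 μM and 5 nM.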", "units": {"IC50": "nM"}, "values": [
      {"smiles": "COc1cc(-c2cc3[nH]c(=O)n(C4CCCN(C(=O)CN(C)C)C4)c3cc2C)cn2ncnc12", "note": "(stereo not drawn) [Example 105, 1-(1-(dimethylglycyl)piperidin-3-yl)-5-(8-methoxy-[1,2,4]triazolo[1,5-a]pyridin-6-yl)-6-methyl-1,3-dihydro-2H-benzo[d]imidazol-2-one]", "IC50": 318},
      {"smiles": "COc1cc(-c2cc3[nH]c(=O)n([C@@H]4CCCN(CC5CCOCC5)C4)c3cc2C(F)(F)F)cn2ncnc12", "note": "[Example 112, (R)-5-(8-methoxy-[1,2,4]triazolo[1,5-a]pyridin-6-yl)-1-(1-((tetrahydro-2H-pyran-4-yl)methyl)piperidin-3-yl)-6-(trifluoromethyl)-1,3-dihydro-2H-benzo[d]imidazol-2-one]", "IC50": 20.3},
      {"smiles": "COc1cc(-c2cc3[nH]c(=O)n([C@@H]4CCCN(CC5CCC5)C4)c3cc2C(C)C)cn2ncnc12", "note": "[Example 140, (R)-1-(1-(cyclobutylmethyl)piperidin-3-yl)-6-isopropyl-5-(8-methoxy-[1,2,4]triazolo[1,5-a]pyridin-6-yl)-1,3-dihydro-2H-benzo[d]imidazol-2-one]", "IC50": 3.92},
      {"smiles": "COc1cc(-c2cc3[nH]c(=O)n([C@@H]4CCCN(C5COC5)C4)c3cc2C(C)C)cn2ncnc12", "note": "[Example 135, (R)-6-isopropyl-5-(8-methoxy-[1,2,4]triazolo[1,5-a]pyridin-6-yl)-1-(1-(oxetan-3-yl)piperidin-3-yl)-1,3-dihydro-2H-benzo[d]imidazol-2-one]", "IC50": 20},
      {"smiles": "COc1cc(-c2cc3[nH]c(=O)n([C@@H]4CCCN(CC5CCOCC5)C4)c3cc2C(C)C)cn2ncnc12", "note": "[Example 139, (R)-6-isopropyl-5-(8-methoxy-[1,2,4]triazolo[1,5-a]pyridin-6-yl)-1-(1-((tetrahydro-2H-pyran-4-yl)methyl)piperidin-3-yl)-1,3-dihydro-2H-benzo[d]imidazol-2-one]", "IC50": 1.27},
      {"smiles": "COc1cc(-c2cc3[nH]c(=O)n([C@H]4CCCN(C5CCOCC5)C4)c3cc2C(C)C)cn2ncnc12", "note": "[Example 124, (S)-6-isopropyl-5-(8-methoxy-[1,2,4]triazolo[1,5-a]pyridin-6-yl)-1-(1-(tetrahydro-2H-pyran-4-yl)piperidin-3-yl)-1,3-dihydro-2H-benzo[d]imidazol-2-one]", "IC50": 4.33},
      {"smiles": "CCN1CCC[C@@H](n2c(=O)[nH]c3cc(-c4cc(OC)c5ncnn5c4)c(C(F)(F)F)cc32)C1", "note": "[Example 110, (R)-1-(1-ethylpiperidin-3-yl)-5-(8-methoxy-[1,2,4]triazolo[1,5-a]pyridin-6-yl)-6-(trifluoromethyl)-1,3-dihydro-2H-benzo[d]imidazol-2-one]", "IC50": 4.06},
      {"smiles": "COc1cc(-c2cc3[nH]c(=O)n([C@@H]4CCCN(CC(C)C)C4)c3cc2C(C)C)cn2ncnc12", "note": "[Example 141, (R)-1-(1-isobutylpiperidin-3-yl)-6-isopropyl-5-(8-methoxy-[1,2,4]triazolo[1,5-a]pyridin-6-yl)-1,3-dihydro-2H-benzo[d]imidazol-2-one]", "IC50": 0.56},
      {"smiles": "CCc1cc2c(cc1-c1cc(OC)c3ncnn3c1)[nH]c(=O)n2[C@H]1CC[C@@H](NC(C)C)CC1", "note": "[Example 167, 6-ethyl-1-((1s,4s)-4-(isopropylamino)cyclohexyl)-5-(8-methoxy-[1,2,4]triazolo[1,5-a]pyridin-6-yl)-1,3-dihydro-2H-benzo[d]imidazol-2-one]", "IC50": 0.82},
      {"smiles": "Cc1cc(-c2cc(C)c3ncnn3c2)cc2[nH]c(=O)n(C3CCN(C(C)C)CC3)c12", "note": "[Example 107, 1-(1-isopropylpiperidin-4-yl)-7-methyl-5-(8-methyl-[1,2,4]triazolo[1,5-a]pyridin-6-yl)-1,3-dihydro-2H-benzo[d]imidazol-2-one]", "IC50": 249},
      {"smiles": "CCC(CC)CN1CCC[C@H](n2c(=O)[nH]c3cc(-c4cc(OC)c5ncnn5c4)c(C(C)C)cc32)C1", "note": "[Example 130, (S)-1-(1-(2-ethylbutyl)piperidin-3-yl)-6-isopropyl-5-(8-methoxy-[1,2,4]triazolo[1,5-a]pyridin-6-yl)-1,3-dihydro-2H-benzo[d]imidazol-2-one]", "IC50": 8.52},
      {"smiles": "CCN1CCC(n2c(=O)[nH]c3cc(-c4cc(OC)c5ncnn5c4)c(C)cc32)CC1", "note": "[Example 9, 1-(1-ethylpiperidin-4-yl)-5-(8-methoxy-[1,2,4]triazolo[1,5-a]pyridin-6-yl)-6-methyl-1,3-dihydro-2H-benzo[d]imidazol-2-one]", "IC50": 92.7}
    ]}
  ]
}
